Data as given in patent US10265299B2, “Composition for promoting hair growth and/or hair restoration containing psoralidin” (Amorepacific Corporation, priority 2015, dated 2019).

Columns and labels:
NIH3T3 (WNT) cells = test: Measurement of hair follicle stem cell activity (WNT/β-catenin luciferase assay); assay type: cell-based; details: psoralidin 0, 0.01, 0.1, 1, 10 μM for 24 hours; ONE-Glo reagent
Experimental: NIH3T3 (WNT) cells, which are hair follicle stem cells, were seeded in a 96 well plates (Nunc, Wiesbaden, Germany) at a density of 10000 cells/well and cultured for 24 hours (5% CO2, 37° C.). Then, psoralidin was treated at varying concentrations (0, 0.01, 0.1, 1, 10 μM) for 24 hours. 100 μl of ONE-Glo reagent (Promega, Madison, Wis., USA) was added to each well of the 96-well plate and reacted for 3 minutes . After the reaction, the activity of stem eel Is was measured with a luminometer Victor (PerkinElmer, Waltham, Mass., USA).

hair follicle = test: Culture of hair follicle organ and observation of hair follicle cycle; assay type: cell-based; details: psoralidin 1, 10 μM vs samples without psoralidin treatment; human hair follicle organ culture
Experimental: For the experiment, a hair transplant was performed to a person with a symptom of partial hair loss. Hair follicle samples of 4 groups each having 15 hair follicles were prepared with remaining follicle samples. William's E medium (Gibco, NY, USA) ) including 500 μl culture medium (2 mM L-glutamine (PAA, Coelbe, Germany), 10 μg/ml insulin, 10 ng/ml hydrocortisone (Sigma, St Louis, Mo.), 0.1% Fungizone (Gibco, NY, USA), 10 μg/ml streptomycin, and 100 U/ml penicillin (Gibco, NY, USA) was dispensed into a 24 well plate (Nunc, Wiesbaden, Germany). Then, the cells were cultured at a density of 5 to 6 cells per well on 500 ul of William's E medium (Gibco, NY, USA).
The cultured cell samples were treated with psoralidin at varying concentrations (0, 1, 10 μM). A sample not treated with psoralidin was used as a control and the medium was changed every 2 to 3 days. After the treatment with psoralidin, the hair follicle was photographed using a stereomicroscope (Dongwon CNS, Korea), and the life cycle of Image hair follicle was classified and schematized.

[1] = tested on: CRH (Corticotropin-releasing hormone) and corticosterone; details: fed to animals; cited from earlier work
protein kinase Akt = details: cited from earlier work
[2] = tested on: androgen-independent prostate cancer cells; details: in vitro and in vivo; cited from earlier work

CC(C)=CCc1cc2c(cc1O)oc(=O)c1c3ccc(O)cc3oc21 [psoralidin]
activity of hair follicle stem cells (luminescence, WNT/β-catenin luciferase) (NIH3T3 (WNT) cells): activated | speed of the progression to the catagen stage (hair follicle): significantly delayed | time remaining in the anagen stage of the hair follicle cycle (hair follicle): remained longer in the anagen stage | levels of stress hormones CRH and corticosterone [1]: lower the levels of hormones of CRH (Corticotropin-releasing hormone) and corticosterone | phosphorylation of protein kinase Akt (protein kinase Akt): inhibits the phosphorylation of protein kinase Akt | growth of androgen-independent prostate cancer cells [2]: inhibiting the growth of androgen-independent prostate cancer cells both in vitro and in vivo
